According to paper PMC10790229 (Journal of medicinal chemistry, 2023):

Key:
Type in all cases: cell-based
MT-4 cells = experiment: Cytotoxicity in uninfected MT-4 cells
HIV-2 ROD = experiment: Anti-HIV-2 activity in MT-4 cells; conditions: HIV-2 ROD; for SI ROD (CC50/EC50): MT-4 cells; for EC50: read-out: EC50 ROD, 50% protection of MT-4 cells against HIV-induced cytotoxicity
HIV-1 IIIB = experiment: Anti-HIV-1 activity in MT-4 cells; conditions: MT-4 cells; for SI IIIB (CC50/EC50): HIV-1 IIIB

| Substance | CC50 (MT-4 cells) [µM] | SI ROD (CC50/EC50) (HIV-2 ROD) | EC50 (HIV-2 ROD) [µM] | SI IIIB (CC50/EC50) (HIV-1 IIIB) | Ratio IIIB(EC50)/ROD(EC50) (HIV-1 IIIB) |
| --- | --- | --- | --- | --- | --- |
| (S)-2-(4-((4-Aminophenyl)sulfonyl)-2-oxopiperazin-1-yl)-N-(1-(3-(4-methoxyphenyl)-4-oxo-3,4-dihydroquinazolin-2-yl)-2-phenylethyl)acetamide [12a1] | > 187 | >1250.00 | 0.15 ± 0.04 | >290.70 | 4.27 |
| (S)-2-(4-((4-Aminophenyl)sulfonyl)-2-oxopiperazin-1-yl)-N-(1-(3-(4-methoxyphenyl)-7-(methylsulfonyl)-4-oxo-3,4-dihydroquinazolin-2-yl)-2-phenylethyl)acetamide [12e1] | > 168 | >480.77 | 0.35 ± 0.03 | >43.71 | 10.97 |
| (S)-2-(4-((4-Aminophenyl)sulfonyl)-2-oxopiperazin-1-yl)-N-(1-(7-chloro-3-(4-methoxyphenyl)-4-oxo-3,4-dihydroquinazolin-2-yl)-2-phenylethyl)acetamide [12c1] | > 178 | >1736.11 | 0.1 ± 0.02 | >290.70 | 6.10 |
| (S)-2-(4-((4-Aminophenyl)sulfonyl)-2-oxopiperazin-1-yl)-N-(2-(3,5-difluorophenyl)-1-(3-(4-methoxyphenyl)-7-(methylsulfonyl)-4-oxo-3,4-dihydroquinazolin-2-yl)ethyl)acetamide [12e2] | > 160 | >1041.67 | 0.15 ± 0.03 | >235.85 | 4.53 |
| (S)-N-(1-(7-Chloro-3-(4-methoxyphenyl)-4-oxo-3,4-dihydroquinazolin-2-yl)-2-(3,5-difluorophenyl)ethyl)-2-(4-((4-nitrophenyl)sulfonyl)-2-oxopiperazin-1-yl)acetamide [11c2] | > 163 | >403.23 | 0.4 ± 0.1 | >277.78 | 1.48 |
| (S)-N-(1-(7-Fluoro-3-(4-methoxyphenyl)-4-oxo-3,4-dihydroquinazolin-2-yl)-2-phenylethyl)-2-(4-((4-nitrophenyl)sulfonyl)-2-oxopiperazin-1-yl)acetamide [11b1] | > 175 | >312.50 | 0.56 ± 0.14 | >88.03 | 3.55 |
| (S)-N-(2-(3,5-Difluorophenyl)-1-(7-fluoro-3-(4-methoxyphenyl)-4-oxo-3,4-dihydroquinazolin-2-yl)ethyl)-2-(4-((4-nitrophenyl)sulfonyl)-2-oxopiperazin-1-yl)acetamide [11b2] | > 167 | >480.77 | 0.35 ± 0.03 | >337.84 | 1.40 |
